According to patent US11459315B2, “Modulators of methyl modifying enzymes, compositions and uses thereof” (Constellation Pharmaceuticals, Inc., priority 2017, dated 2022):
pEC50, pIC50: −log10 of the molar value. Where two headings read alike, the source gives them in different places.

Key:
[1] = molecular target: PRC2 containing wt EZH2 (Homo sapiens (Human), UniProt Q15910); assay: EZH2 biochemical assay (IC50), 3H-SAM incorporation into biotinylated H3 peptide
Experimental: EZH2 biochemical assay (IC50): Compound potencies were assessed through incorporation of ^3H-SAM into a biotinylated H3 peptide. Specifically, 30 pM PRC2 containing wt EZH2 (pentameric complex prepared in-house) was pre-incubated with 450 nM SAM, 450 nM ^3H-SAM, 2 μM H3K27me3 activating peptide (H2N-[…](Kme3)[…]-amide) and compounds (as 10 point duplicate dose response titrations in DMSO, final assay 0.8% DMSO (v/v)) for 3-5 h in 50 mM Tris (pH 8.5), 1 mM DTT, 0.07 mM Brij-35, 0.1% BSA, and 0.8% DMSO in a total volume of 12.5 μl. Reaction was initiated with biotinylated H3 substrate peptide (H2N-[…](Kme1)[…]-NTPEGBiot) as a 2 μM stock in 12.5 μl of buffer and allowed to react at room temperature for 18-22 h. Quenching was accomplished by addition of 20 μl of STOP solution (50 mM Tris (pH 8.5), 200 mM EDTA, 2 mM SAH). 35 μl of the quenched solution was transferred to streptavidin coated FlashPlates (PerkinElmer), incubated 1-2 h, washed, and read in a TopCount Reader (PerkinElmer). IC50s were calculated in Genedata Screener using non-linear least square four parameter fits, where the four parameters were IC50, Hill slope, pre-transitional baseline (0% INH), and post-transitional baseline (100% INH).
IC50 values are reported as follows: “A” indicates an IC50 value of less than 0.5 nM; “B” indicates an IC50 value of 0.5 nM to 5 nM; “C” indicates an IC50 value of greater than 5 nM for each enzyme; and “ND” is not determined.

[2] = test system: H3K27me3 mark in HeLa cells (EZH2); assay: H3K27me3 Alpha Hela Assay (AlphaLISA); assay type: cell-based; conditions: HeLa cells, 72 hrs, read-out: EZH2 Cell H3K27me3 Alpha HeLa (EC50 K27me3)
Experimental: H3K27me3 Alpha Hela Assay (AlphaLISA). Ten different doses of each test compound (in a series of 3-fold dilutions) were plated in duplicate 384-well tissue culture treated plates (Catalog #6007680; Perkin Elmer, Waltham, Mass.). Hela cells grown in culture were trypsinized and counted using a Countess® cell counter (Catalog #C10281; Life Technologies, Grand Island, N.Y.). Cell were diluted to 67,000 cells per mL in 10% DMEM (Catalog #10569-010 Life Technologies, Grand Island, N.Y.) and 15 μL (1,000 cells) were plated into each well using the Biotek MicroFlo™ Select Dispenser (BioTek Instruments, Inc. Vermont, USA),) of the 384-well plate. Plates were incubated at 37° C./5% CO2 for 72 hrs. One of the duplicate plates was processed for HeLa assay and the other for viability.
5 μL of Cell-Histone Lysis buffer (1×) (Catalog #AL009F1 Perkin Elmer; Waltham, Mass.) per well was added to the plate processed for AlphaLISA and the plate was incubated at RT for 30 minutes on a plate shaker with low speed (Model #4625-Q Thermo Scientific; Waltham, Mass.). Then, 10 μL per well Histone Extraction buffer (catalog #AL009F2; Perkin Elmer; Waltham, Mass.) was added and the plate further incubated at RT for 20 min on plate shaker with low speed. Next, 10 μL of 5× mix of anti-K27me3 acceptor beads plus Biotinylated anti-Histone H3 (C-ter) Antibody (diluted to 3 nM final) (Catalog #AL118 Perkin Elmer; Waltham, Mass.) was added in each well. Dilution of the acceptor beads and anti-Histone H3 was done in 1× Histone Detection buffer (Catalog #AL009F3 Perkin Elmer; Waltham, Mass.) which was produced by diluting the 10× stock provided. The plate was sealed with an aluminum plate sealer and incubated at 23° C. for 60 min. Next, 10 μL 5× solution of Streptavidin Donor beads were added (Catalog #6760002 Perkin Elmer; Waltham, Mass.) (20 μg/mL final in 1× Histone Detection Buffer), =plate was sealed with Aluminum plate sealer and incubated at 23° C. for 30 min. The plates were then read using an EnVision-Alpha Reader (model #2104 Perkin Elmer; Waltham, Mass.).
Data from both assays was analyzed using Genedata (Basel, Switzerland). Data files were imported to Genedata and assay conditions were specified. A unique Analysis ID was created and the data files analysed to measure dose-dependent inhibition of H3K27me3 mark and cell viability respectively. Readout of DMSO wells were used to normalize the data. Resulting curves were fitted using Smart fit application (Genedata; Basel, Switzerland). The data was checked for quality, validated and integrated in excel format using Stardrop (Optibruim, Cambridge, UK).
EC50 values are reported as follows: “A” indicates an EC50 value of less than 10 nM; “B” indicates an EC50 value of 10 nM to 100 nM; “C” indicates an EC50 value of greater than 100 nM; and “ND” is not determined.

[3] = 30 pM PRC2 containing wt EZH2; 3-5 h pre-incubation; read-out: EZH2 (IC50)
[4] = EZH2 (IC50), 30 pM PRC2 containing wt EZH2; 3-5 h pre-incubation

Chain of PRC2 containing wt EZH2 (Q15910 whole entry): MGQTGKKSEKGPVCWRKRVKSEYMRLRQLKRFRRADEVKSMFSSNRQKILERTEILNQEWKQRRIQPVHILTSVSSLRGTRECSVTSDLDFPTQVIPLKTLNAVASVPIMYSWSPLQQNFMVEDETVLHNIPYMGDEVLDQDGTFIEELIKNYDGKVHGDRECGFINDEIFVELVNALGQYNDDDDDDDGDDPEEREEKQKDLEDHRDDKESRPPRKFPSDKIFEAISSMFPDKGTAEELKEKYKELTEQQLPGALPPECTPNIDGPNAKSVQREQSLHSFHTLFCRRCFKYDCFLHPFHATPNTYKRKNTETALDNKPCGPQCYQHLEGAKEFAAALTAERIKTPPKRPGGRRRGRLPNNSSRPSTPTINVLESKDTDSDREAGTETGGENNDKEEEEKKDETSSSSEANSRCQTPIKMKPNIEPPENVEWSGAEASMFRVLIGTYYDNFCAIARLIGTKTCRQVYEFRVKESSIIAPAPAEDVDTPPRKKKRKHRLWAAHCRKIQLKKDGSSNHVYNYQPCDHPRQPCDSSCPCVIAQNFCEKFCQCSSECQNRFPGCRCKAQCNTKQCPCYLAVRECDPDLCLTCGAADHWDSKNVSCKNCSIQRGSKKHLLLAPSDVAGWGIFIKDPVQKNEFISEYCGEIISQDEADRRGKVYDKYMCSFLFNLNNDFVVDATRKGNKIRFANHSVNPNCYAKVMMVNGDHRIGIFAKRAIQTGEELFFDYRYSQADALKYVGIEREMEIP
Chain of PRC2 containing wt EZH2 (O75530 whole entry partner): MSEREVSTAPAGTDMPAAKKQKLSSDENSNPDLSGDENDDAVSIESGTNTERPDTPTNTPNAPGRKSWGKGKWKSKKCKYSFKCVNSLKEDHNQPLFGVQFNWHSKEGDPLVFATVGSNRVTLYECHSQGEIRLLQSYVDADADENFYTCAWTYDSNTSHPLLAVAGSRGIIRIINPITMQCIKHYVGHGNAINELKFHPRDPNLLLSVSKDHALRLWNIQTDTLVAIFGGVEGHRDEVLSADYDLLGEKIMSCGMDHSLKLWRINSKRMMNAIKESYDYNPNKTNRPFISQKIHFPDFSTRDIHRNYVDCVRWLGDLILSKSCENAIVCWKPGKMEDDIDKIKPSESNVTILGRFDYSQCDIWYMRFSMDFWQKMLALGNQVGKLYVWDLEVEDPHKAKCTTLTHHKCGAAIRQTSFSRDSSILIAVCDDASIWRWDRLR
Chain of PRC2 containing wt EZH2 (Q15022 whole entry partner): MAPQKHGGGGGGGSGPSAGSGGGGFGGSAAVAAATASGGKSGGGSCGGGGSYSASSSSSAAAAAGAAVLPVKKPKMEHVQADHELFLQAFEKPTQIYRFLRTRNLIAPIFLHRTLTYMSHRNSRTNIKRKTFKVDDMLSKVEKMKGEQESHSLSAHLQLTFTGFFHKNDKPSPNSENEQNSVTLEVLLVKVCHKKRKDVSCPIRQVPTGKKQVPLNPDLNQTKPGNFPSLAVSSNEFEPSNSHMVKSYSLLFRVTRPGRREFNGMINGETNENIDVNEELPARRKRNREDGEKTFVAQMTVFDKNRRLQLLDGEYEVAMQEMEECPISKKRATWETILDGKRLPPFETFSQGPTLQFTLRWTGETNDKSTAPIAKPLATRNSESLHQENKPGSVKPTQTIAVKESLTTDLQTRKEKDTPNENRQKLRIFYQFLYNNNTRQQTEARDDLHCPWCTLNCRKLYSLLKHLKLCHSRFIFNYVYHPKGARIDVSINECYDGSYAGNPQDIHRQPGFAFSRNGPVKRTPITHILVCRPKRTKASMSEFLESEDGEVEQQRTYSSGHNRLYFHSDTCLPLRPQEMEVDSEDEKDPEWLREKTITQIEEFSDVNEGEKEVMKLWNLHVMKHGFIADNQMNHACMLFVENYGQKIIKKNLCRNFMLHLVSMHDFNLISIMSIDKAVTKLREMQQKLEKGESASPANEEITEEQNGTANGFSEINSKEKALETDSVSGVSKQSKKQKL
Chain of PRC2 containing wt EZH2 (Q09028 whole entry partner): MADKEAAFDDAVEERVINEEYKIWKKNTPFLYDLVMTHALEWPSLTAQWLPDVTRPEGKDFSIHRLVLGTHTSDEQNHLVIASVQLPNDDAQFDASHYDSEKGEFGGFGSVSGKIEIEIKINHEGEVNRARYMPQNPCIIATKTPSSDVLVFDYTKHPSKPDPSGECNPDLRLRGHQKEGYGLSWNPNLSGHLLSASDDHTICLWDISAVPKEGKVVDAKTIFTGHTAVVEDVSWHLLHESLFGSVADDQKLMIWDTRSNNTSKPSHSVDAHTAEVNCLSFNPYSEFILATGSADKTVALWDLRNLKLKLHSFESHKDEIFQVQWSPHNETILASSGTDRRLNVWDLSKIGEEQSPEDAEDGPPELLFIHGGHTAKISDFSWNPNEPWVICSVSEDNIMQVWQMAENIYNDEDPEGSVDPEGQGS
Chain of PRC2 containing wt EZH2 (Q6ZN18 whole entry partner): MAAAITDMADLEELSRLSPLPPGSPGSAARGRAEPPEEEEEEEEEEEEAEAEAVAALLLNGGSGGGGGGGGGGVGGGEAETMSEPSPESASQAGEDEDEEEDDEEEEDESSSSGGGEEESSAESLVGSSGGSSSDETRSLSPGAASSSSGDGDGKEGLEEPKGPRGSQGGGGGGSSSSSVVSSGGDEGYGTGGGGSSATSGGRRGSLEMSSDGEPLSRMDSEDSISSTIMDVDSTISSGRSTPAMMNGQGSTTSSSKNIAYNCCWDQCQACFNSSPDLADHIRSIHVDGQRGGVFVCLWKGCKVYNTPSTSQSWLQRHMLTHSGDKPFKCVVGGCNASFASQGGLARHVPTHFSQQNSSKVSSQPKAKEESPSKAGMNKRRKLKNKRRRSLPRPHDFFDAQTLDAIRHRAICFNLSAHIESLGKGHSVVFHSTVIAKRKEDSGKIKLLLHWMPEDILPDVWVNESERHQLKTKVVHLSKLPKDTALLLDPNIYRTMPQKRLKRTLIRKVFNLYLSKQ

SMILES | pIC50 [1, 3] | pEC50 [2] | pIC50 [1, 4] | pEC50 ([2]; Homo sapiens, HeLa, 72 h) | pIC50 ([1]; read-out: EZH2 (IC50); 30 pM PRC2 containing wt EZH2; 3-5 h pre-incubation)
CSc1cc(C)[nH]c(=O)c1CNC(=O)c1c(C)n([C@H](C)C2CCC(OC(=O)C(C)C)CC2)c2ccccc12 (single isomer, unassigned) [144 (isomer 2)] | > 9.30 | > 8.00 | – | – | –
CSc1cc(C)[nH]c(=O)c1CNC(=O)c1c(C)n([C@H](C)C2OCC(N3CC(F)(F)C3)CO2)c2ccccc12 (single isomer, unassigned) [85 (isomer 2)] | – | < 7.00 | 8.30 to 9.30 | – | –
CCCC(=O)OC1CCC([C@@H](C)n2c(C)c(C(=O)NCc3c(SC)cc(C)[nH]c3=O)c3ccccc32)CC1 (single isomer, unassigned) [143 (isomer 2)] | > 9.30 | > 8.00 | – | – | –
CSc1cc(C)[nH]c(=O)c1CNC(=O)c1c(C)n([C@H](C)C2CCC(NC3(CF)COC3)CC2)c2ncccc12 (single isomer, unassigned) [155 (isomer 2)] | 8.30 to 9.30 | 7.00 to 8.00 | – | – | –
COC1CN(C2CCC([C@@H](C)n3c(C)c(C(=O)NCc4c(SC)cc(C)[nH]c4=O)c4cc(F)cnc43)CC2)C1 (single isomer, unassigned) [94 (isomer 2)] | 8.30 to 9.30 | < 7.00 | – | – | –
COC1CN(C2CCC([C@@H](C)n3c(C)c(C(=O)NCc4c(SC)cc(C)[nH]c4=O)c4cccnc43)CC2)C1 (single isomer, unassigned) [76 (isomer 1)] | – | > 8.00 | > 9.30 | – | –
COCCN(C)C1COC([C@@H](C)n2c(C)c(C(=O)NCc3c(SC)cc(C)[nH]c3=O)c3ccccc32)OC1 (single isomer, unassigned) [16 (isomer 2)] | < 8.30 | < 7.00 | – | – | –
CSc1cc(C)[nH]c(=O)c1CNC(=O)c1c(C)n([C@H](C)C2CCC(O)CC2)c2ccccc12 (single isomer, unassigned) [19 (isomer 1)] | – | – | > 9.30 | > 8.00 | –
CSc1cc(C)[nH]c(=O)c1CNC(=O)c1c(C)n([C@H](C)C2CCC(O)CC2)c2ncc(Cl)cc12 (single isomer, unassigned) [53 (isomer 1)] | – | – | > 9.30 | 7.00 to 8.00 | –
CSc1cc(C)[nH]c(=O)c1CNC(=O)c1c(C)n([C@H](C)C2OCC(N(C)C)CO2)c2ccccc12 (single isomer, unassigned) [7 (isomer 2)] | > 9.30 | > 8.00 | – | – | –
COCCN(C)C1COC([C@@H](C)n2c(C)c(C(=O)NCc3c(SC)cc(C)[nH]c3=O)c3ccccc32)OC1 (single isomer, unassigned) [16 (isomer 1)] | > 9.30 | > 8.00 | – | – | –
CSc1cc(C)[nH]c(=O)c1CNC(=O)c1c(C)n([C@H](C)C2CCC(NC3(CF)COC3)CC2)c2ccccc12 (single isomer, unassigned) [154 (isomer 2)] | > 9.30 | > 8.00 | – | – | –
CSc1cc(C)[nH]c(=O)c1CNC(=O)c1c(C)n([C@H](C)C2CCN(CC(F)(F)F)CC2)c2cccc(C(F)F)c12 [Example 114, (R)-4-(difluoromethyl)-2-methyl-N-((6-methyl-4-(methylthio)-2-oxo-1,2-dihydropyridin-3-yl)methyl)-1-(1-(1-(2,2,2-trifluoroethyl)piperidin-4-yl)ethyl)-1H-indole-3-carboxamide] | < 8.30 | – | – | < 7.00 | –
CSc1cc(C)[nH]c(=O)c1CNC(=O)c1c(C)n([C@H](C)[C@H]2CCN(C)[C@H](C(F)(F)F)C2)c2ccccc12 [Example 71, 2-methyl-1-((R)-1-((2S,4S)-1-methyl-2-(trifluoromethyl)piperidin-4-yl)ethyl)-N-((6-methyl-4-(methylthio)-2-oxo-1,2-dihydropyridin-3-yl)methyl)-1H-indole-3-carboxamide] | – | – | > 9.30 | > 8.00 | –
CSc1cc(C)[nH]c(=O)c1CNC(=O)c1c(C)n([C@H](C)C2CCC(N3CC(OC4CC4)C3)CC2)c2ncncc12 (single isomer, unassigned) [102 (isomer 1)] | > 9.30 | – | – | > 8.00 | –
CSc1cc(C)[nH]c(=O)c1CNC(=O)c1c(C)n([C@H](C)C2CCC(N(C)C)CC2)c2ncccc12 (single isomer, unassigned) [51 (isomer 1)] | > 9.30 | 7.00 to 8.00 | – | – | –
CSc1cc(C)[nH]c(=O)c1CNC(=O)c1c(C)n([C@H](C)C2OCC(NC(C)(C)C)CO2)c2ccccc12 (single isomer, unassigned) [5 (isomer 2)] | > 9.30 | > 8.00 | – | – | –
COC1CN(C2CCC([C@@H](C)n3c(C)c(C(=O)NCc4c(SC)cc(C)[nH]c4=O)c4cncnc43)CC2)C1 (stereo partly drawn) [Example 77, 7-((R)-1-(4-(3-methoxyazetidin-1-yl)cyclohexyl)ethyl)-6-methyl-N-((6-methyl-4-(methylthio)-2-oxo-1,2-dihydropyridin-3-yl)methyl)-7H-pyrrolo[2,3-d]pyrimidine-5-carboxamide] | – | – | > 9.30 | 7.00 to 8.00 | –
CSc1cc(C)[nH]c(=O)c1CNC(=O)c1c(C)n([C@H](C)C2CCC(N3CCC(OC4CC4)C3)CC2)c2ncccc12 (stereo partly drawn) [Example 111, 1-((1R)-1-(4-(3-cyclopropoxypyrrolidin-1-yl)cyclohexyl)ethyl)-2-methyl-N-((6-methyl-4-(methylthio)-2-oxo-1,2-dihydropyridin-3-yl)methyl)-1H-pyrrolo[2,3-b]pyridine-3-carboxamide] | > 9.30 | – | – | 7.00 to 8.00 | –
CSc1cc(C)[nH]c(=O)c1CNC(=O)c1c(C)n([C@H](C)C2CCC(OC(=O)C(C)C)CC2)c2ccccc12 (single isomer, unassigned) [144 (isomer 1)] | > 9.30 | – | – | > 8.00 | –
CSc1cc(C)[nH]c(=O)c1CNC(=O)c1c(C)n([C@H](C)C2CCC(N3CC[C@@H](F)C3)CC2)c2ccccc12 (single isomer, unassigned) [79 (isomer 1)] | – | – | > 9.30 | > 8.00 | –
CSc1cc(C)[nH]c(=O)c1CNC(=O)c1c(C)n([C@H](C)C2CCN(C3CC(F)C3)CC2)c2ccccc12 (single isomer, unassigned) [64 (isomer 1)] | – | – | > 9.30 | 7.00 to 8.00 | –
CSc1cc(C)[nH]c(=O)c1CNC(=O)c1c(C)n([C@H](C)C2CCC(N3CC(OC4CC4)C3)CC2)c2c(F)cccc12 (single isomer, unassigned) [113 (isomer 2)] | > 9.30 | 7.00 to 8.00 | – | – | –
CSc1cc(C)[nH]c(=O)c1CNC(=O)c1c(C)n([C@H](C)C2CCC(C)(O)CC2)c2ccccc12 (single isomer, unassigned) [22 (isomer 2)] | – | > 8.00 | – | – | > 9.30
COCCOC1CCC([C@@H](C)n2c(C)c(C(=O)NCc3c(SC)cc(C)[nH]c3=O)c3ccccc32)CC1 (single isomer, unassigned) [67 (isomer 2)] | – | > 8.00 | > 9.30 | – | –
